# Measured values as given in PubChem BioAssay (NCI).
#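 How tested: cells in 96-well plates exposed to compound for 48 hours at five concentrations. At the GI50, growth is halved. TGI marks complete inhibition of growth.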
# Key:
# Test in all cases: NCI tumour cell line growth inhibition, 48 h
# MDA-MB-435 = test system: MDA-MB-435
# OVCAR-8 ovarian = test system: OVCAR-8 ovarian
# SK-MEL-28 melanoma = test system: SK-MEL-28 melanoma
# MDA-N = test system: MDA-N
# UO-31 renal = test system: UO-31 renal
# UACC-257 melanoma = test system: UACC-257 melanoma
# SF-295 CNS = test system: SF-295 CNS
# ACHN renal = test system: ACHN renal
# HOP-92 NSCLC = test system: HOP-92 NSCLC
# OVCAR-4 ovarian = test system: OVCAR-4 ovarian
# SK-MEL-2 melanoma = test system: SK-MEL-2 melanoma
Compound,TGI (MDA-MB-435) [µM],TGI (OVCAR-8 ovarian) [µM],TGI (SK-MEL-28 melanoma) [µM],TGI (MDA-N) [µM],TGI (UO-31 renal) [µM],TGI (UACC-257 melanoma) [µM],TGI (SF-295 CNS) [µM],TGI (ACHN renal) [µM],TGI (HOP-92 NSCLC) [µM],TGI (OVCAR-4 ovarian) [µM],TGI (SK-MEL-2 melanoma) [µM],GI50 (MDA-MB-435) [nM],GI50 (OVCAR-8 ovarian) [nM],GI50 (HOP-92 NSCLC) [nM],GI50 (OVCAR-4 ovarian) [nM],GI50 (SK-MEL-28 melanoma) [nM],GI50 (SF-295 CNS) [nM],GI50 (ACHN renal) [nM]
COc1ccc(NS(=O)CCc2ccccc2)cc1 (stereo not drawn),> 100,> 100,> 100,> 100,> 100,> 100,> 100,> 100,–,–,–,–,–,–,–,–,–,–
C/C(C=O)=N\Nc1cc(C)c2ccccc2n1,38.1,34.8,39.1,–,28.1,36.6,39.4,29.9,29.6,27.8,37.8,–,–,–,–,–,–,–
CSc1nc(C)cc(Nc2ccc(O)c(CN3CCCCC3)c2)n1,> 100,> 100,79.6,75.4,> 100,–,> 100,> 100,> 100,> 100,–,–,–,–,–,–,–,–
CC1=NC(=Cc2ccc(Cl)cc2)C(=O)N1n1c(-c2ccccc2)nc2ccccc2c1=O,> 100,> 100,> 100,> 100,> 100,75.5,> 100,46.7,–,–,–,–,–,–,–,–,–,–
CC1CN=C(NCc2ccccc2)S1 (stereo not drawn),> 100,–,> 100,> 100,> 100,> 100,–,> 100,–,–,> 100,–,–,–,–,–,–,–
Clc1cc(Cl)cc(N2N=C(c3cccc(Nc4ccncc4)c3)CC2c2ccccc2)c1 (stereo not drawn),3.36,4.56,3.21,–,–,–,3.08,3.89,3.07,3.87,–,1720,2070,1490,1860,1760,1650,1900
CC1CCCc2c(-c3ccc(Cl)cc3)nc(N)c(C#N)c21 (stereo not drawn),> 100,91.6,> 100,53.4,61.7,61.5,–,> 100,–,–,67.6,–,–,–,–,–,–,–
CC(=O)NNC=N/C(C#N)=C(\N)C#N,> 100,> 100,> 100,> 100,> 100,> 100,> 100,> 100,–,> 100,> 100,–,–,–,–,–,–,–
CCn1c(=O)c2c(=O)[nH][nH]c2c2ccccc21,> 100,> 100,> 100,> 100,> 100,> 100,> 100,> 100,> 100,> 100,–,–,–,–,–,–,–,–
CSC1=N/C(=C\c2cccs2)C(=O)N1CN1CCCCC1,> 100,> 100,> 100,> 100,> 100,–,> 100,> 100,96.5,–,> 100,–,–,–,–,–,–,–
CCCOC(=O)c1cc(C(=CCC[C@H]2CC[C@@]3(C)[C@@H](CC[C@@H]4[C@@H]3CC[C@]3(C)[C@@H](C(C)CCCC(C)C)CC[C@@H]43)C2)c2cc(Cl)c(O)c(C(=O)OCCC)c2)cc(Cl)c1O (stereo partly drawn),> 50,> 50,–,> 50,–,–,–,–,–,> 50,> 50,–,–,–,–,–,–,–
Cc1ccc(S(=O)(=O)N(c2ccccc2F)C2CCCCC2O)cc1 (stereo not drawn),48.5,> 100,> 100,50.1,> 100,5.64,> 100,> 100,–,> 100,93.7,–,–,–,–,–,–,–
CC(=O)OCC(OC(C)=O)C(OC(C)=O)C(/C=N/N(C(C)=O)S(=O)(=O)c1ccc(/C=C2\NC(=O)NC2=O)cc1)OC(C)=O (stereo not drawn),> 100,> 100,–,> 100,> 100,> 100,> 100,> 100,–,> 100,> 100,–,–,–,–,–,–,–
CN(C(=O)C1=CCCCCC1)c1ccccc1I,> 100,> 100,> 100,> 100,> 100,> 100,> 100,> 100,–,86.9,> 100,–,–,–,–,–,–,–
CSc1nc(=S)[nH]c2n[nH]c(C)c12,> 100,> 100,> 100,> 100,> 100,> 100,–,–,–,> 100,> 100,–,–,–,–,–,–,–
CCCCCCC(N)(CCCCCC)C(=O)Nn1c(C)ccc1C,> 100,> 100,> 100,> 100,> 100,> 100,> 100,> 100,–,> 100,> 100,–,–,–,–,–,–,–
Oc1ccccc1C=Nc1ccc(Oc2ccc(Cl)cc2)c(Cl)c1,> 100,57.9,72.5,–,24.2,> 100,48.8,88.3,41.4,66.2,32.4,–,–,–,–,–,–,–
C1CSCC2(COC2)CS1,> 100,> 100,> 100,> 100,> 100,> 100,> 100,> 100,> 100,> 100,–,–,–,–,–,–,–,–
NC(=S)N/N=C/c1cc(CN2CCOCC2)c(N)cn1,> 100,> 100,–,> 100,> 100,> 100,> 100,> 100,–,–,> 100,–,–,–,–,–,–,–
